Paper PMC3481155, “AhR activation underlies the CYP1A autoinduction by A-998679 in rats” (Frontiers in Genetics, 2012)

Tests used:
Cyp1a1 [1] = experiment: Cyp1a1 mRNA induction in primary rat hepatocytes; assay type: cell-based; conditions: 10 μM, 24 h, data not shown
Method: (§1) Rat hepatocytes were isolated in a perfusion procedure as described previously (Elliget and Kolaja, [1983]; Waring et al., [2001]). The beagle dog hepatocytes were isolated in the same manner, except for adjustment of flow rate and buffer volume to scale to liver size. Cells were plated at a seeding density of 1.0 × 10^6 cells per well on 6-well, collagen-type I coated plates (BD Biosciences, Bedford, MA) in hepatocyte plating medium (Celsis, Baltimore, MD). Cells were allowed to attach for 24 h in a 37°C humidified incubator with a 5% CO2 atmosphere and were dosed for 24 h (rat) or 48 h (dog) with vehicle control [0.1% DMSO (v/v)] or 10 μM A-998679 in fresh treatment media (Celsis hepatocyte incubation media) every 24 h. After the last incubation, cells were lysed in 1 ml of Qiazol (Qiagen) and stored at −80°C until RNA isolation. Cryopreserved human hepatocytes (donor designation Hu4198; Invitrogen Life Technologies, Carlsbad, CA) were thawed and plated according to the manufacturer's protocol and allowed to incubate for 24 h. […]
(§2) RNA samples were diluted with RNase-free molecular biology grade water to a concentration of 20 ng/μl total RNA. […] Results were analyzed by calculating the fold change of CYP1A1 and/or CYP1A2 mRNA levels normalized to 28S rRNA (ΔΔ Ct) in compound treated cells or tissues compared to vehicle levels. […]

CYP2D6 = target: T1, CYP2D6 (Homo sapiens, UniProt P10635); experiment: CYP inhibition evaluation in human liver microsomes, CYP2D6 (dextromethorphan); assay type: in vitro ADME; conditions: probe substrate dextromethorphan
T1 construct: from tissue; host or cells: human liver microsomes
T1 sequence (P10635 whole entry): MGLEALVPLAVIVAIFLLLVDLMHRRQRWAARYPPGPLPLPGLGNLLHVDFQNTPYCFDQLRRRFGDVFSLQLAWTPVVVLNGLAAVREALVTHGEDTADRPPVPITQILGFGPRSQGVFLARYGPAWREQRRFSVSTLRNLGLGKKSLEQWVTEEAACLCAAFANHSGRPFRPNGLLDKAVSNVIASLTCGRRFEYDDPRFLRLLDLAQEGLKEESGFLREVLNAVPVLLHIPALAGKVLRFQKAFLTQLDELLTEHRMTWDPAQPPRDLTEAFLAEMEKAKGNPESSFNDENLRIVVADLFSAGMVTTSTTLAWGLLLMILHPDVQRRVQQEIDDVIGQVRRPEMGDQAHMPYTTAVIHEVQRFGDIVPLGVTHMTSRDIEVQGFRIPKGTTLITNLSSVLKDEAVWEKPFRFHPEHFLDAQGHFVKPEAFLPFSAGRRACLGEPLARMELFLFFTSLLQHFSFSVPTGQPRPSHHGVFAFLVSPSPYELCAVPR
Method: (§3) Incubations were performed in human liver microsomes using probe substrate concentrations similar to their corresponding Km values. Enzyme activity was evaluated in the presence of various concentrations of A-998679. The incubations consisted of the test article at varying concentrations (0–30 μM), probe substrate (concentration ~Km, see Table A2), human liver microsomal protein and 1 mM NADPH in 50 mM phosphate buffer at pH 7.4. Relative quantitation of the metabolites was obtained by LC-MS/MS using an ABSciex (Foster City, CA) API3000 or API4000 Qtrap hybrid linear ion trap mass spectrometer equipped with a TurboIonspray source using either PerkinElmer series 200 pumps or Agilent 1100 series pump with a Leap autosampler. Analytes were separated using a Phenomenex Prodigy ODS(3) 5 μm, 50 × 2.0 mm column at 50°C, eluted and detected under the specific conditions listed in Tables A3, A4, and A5. The analyte to internal standard peak area ratios were determined using Analyst 1.4 software (Applied Biosytems, Carlsbad, CA). The peak area ratios observed in the presence of test article were compared to the vehicle control in order to determine percent activity. To determine the IC50, the data were plotted as Log [dose] μM vs. % inhibition, and analyzed with a sigmoidal dose-response (variable slope) fitting equation. […]

rat Cyp 2C13 = target: T2, rat Cyp 2C13 (Rattus norvegicus, UniProt P20814); experiment: Recombinant rat Cyp phenotype profiling, 2C13; assay type: in vitro ADME; conditions: 60 min
T2 construct: purchased BD Gentest; host or cells: baculovirus infected insect cells
T2 sequence (P20814 whole entry): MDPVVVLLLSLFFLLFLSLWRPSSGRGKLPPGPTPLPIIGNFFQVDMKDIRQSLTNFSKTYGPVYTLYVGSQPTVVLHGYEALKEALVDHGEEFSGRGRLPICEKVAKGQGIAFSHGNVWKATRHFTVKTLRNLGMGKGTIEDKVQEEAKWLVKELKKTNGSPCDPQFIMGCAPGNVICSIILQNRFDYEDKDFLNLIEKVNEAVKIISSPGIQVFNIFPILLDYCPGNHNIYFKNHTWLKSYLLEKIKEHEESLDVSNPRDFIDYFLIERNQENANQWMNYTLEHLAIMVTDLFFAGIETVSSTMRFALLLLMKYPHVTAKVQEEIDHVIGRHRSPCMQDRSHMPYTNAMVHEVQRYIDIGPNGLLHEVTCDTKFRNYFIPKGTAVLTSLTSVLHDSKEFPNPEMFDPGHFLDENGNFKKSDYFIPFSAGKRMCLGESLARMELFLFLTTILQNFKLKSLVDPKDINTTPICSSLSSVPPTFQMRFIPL
Method: Identification of the drug metabolizing enzymes (DMEs) of A-998679 was studied in cDNA expressed recombinant enzymes prepared from baculovirus infected insect cells over-expressing rat Cyp isoforms (BD Gentest, Woburn, MA) as listed in Table 2. Incubations were conducted in duplicate using Supersomes. The incubation mixture contained 100 pmol/ml of enzymes, except for Cyp1a1 (200 pmol/ml), 0.1 or 0.21 μM of [^3H]A-998679 in 100 mM phosphate buffer (pH 7.4). Reactions were initiated with the addition of NADPH at a final concentration of 1 mM and incubated at 37°C for 60 min. At the end of the incubation period, the incubations were terminated by the addition of acetonitrile/ethanol (50/50, v/v) solution. Insect control samples lacking expressed enzyme were used as negative control. The degree of metabolism of A-998679 was assessed by percent of parent remaining using the radio-HPLC method described below.
Radiolabeled components from the above assays were profiled following separation by HPLC with on line radioflow detector. The system consisted of an Agilent 1100 Series quaternary pump and autosampler connected to a Packard 500TR flow scintillation detector. The data were processed using the Radiomatic™ Flo-one® software v3.65. The scintillant (Perkin Elmer FLO-SCINT™ III) flow was maintained at 3 ml/min. […]

CYP1A1 [2] = experiment: CYP1A1 mRNA induction in primary human hepatocytes; assay type: cell-based; conditions: 24 h, dose-dependent
Method: as §1, §2

CYP1A2 = experiment: CYP inhibition evaluation in human liver microsomes, CYP1A2 (phenacetin); assay type: in vitro ADME; conditions: pH 7.4, probe substrate phenacetin
Method: as §3

With `N#Cc1cccc(-c2noc(-c3cccnc3)n2)c1` [A-998679, 3-(5-pyridin-3-yl-1,2,4-oxadiazol-3-yl) benzonitrile] the “Cyp1a1 mRNA induction” value (Cyp1a1 [1]) was “also observed”, the IC50 (CYP2D6) was > 30 µM and the “% parent remaining” value (rat Cyp 2C13; recombinant rat Cyp 2C13, 0.10 μM) was 100%. The “% parent remaining” value (rat Cyp 2C13; recombinant rat Cyp 2C13, 0.21 μM) was 100%, the “lowest concentration inducing CYP1A1 mRNA” value (CYP1A1 [2]) was 3 µM and the IC50 (CYP1A2) was 0.46 µM.
